Results on eleven molecules are retold here after ChEMBL document CHEMBL1201862, “PubChem BioAssay data set” (2004).

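Method: 48-hour compound exposure of cells in 96-well plates, five concentrations, linear interpolation of endpoints. Here, GI50 denotes the concentration required for 50% inhibition of growth.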 The source made the active and inactive calls. Cut-off read from the data, not from the text of the source: active = GI50 up to about 1.1 µM and inactive = higher. A value given as a limit tells only on which side of the number the result lay.

Some test systems named below: CCRF-CEM; TK-10; SK-MEL-5; HL-60; HOP-92; IGROV-1; MDA-MB-435; NCI-H460; SF-295; A498; OVCAR-3; PC-3; HCT-116; MDA-MB-231; COLO 205; SF-268; HCT-15; KM12; ACHN; RPMI-8226.
What all share (assay): growth of human tumour cells (NCI), 48 h

As to `Cc1c(OCc2cccc3ccccc23)ccc2c(=O)cc(SCCN3CCOCC3)oc12`, the GI50 in the assay on CCRF-CEM, in the assay with TK-10, with SK-MEL-5, in the assay with HL-60, in the assay on HOP-92 and in the assay on IGROV-1 was > 100 µM (inactive) in each case. Also, the GI50 with MDA-MB-435 is > 100 µM (inactive); in the assay with NCI-H460, 6.53 µM (inactive); in the assay on SF-295, > 100 µM (inactive); with A498 it was > 100 µM (inactive); in the assay on OVCAR-3, > 100 µM (inactive); with PC-3, > 100 µM (inactive). Moreover, the GI50 with HCT-116 is > 100 µM (inactive); in the assay with MDA-MB-231, > 100 µM (inactive); with COLO 205 it was > 100 µM (inactive); in the assay on SF-268, > 100 µM (inactive); in the assay with HCT-15, greater than 100 µM; in the assay with KM12 it was > 100 µM (inactive). Also, in the assay on ACHN, the GI50 was > 100 µM (inactive).

For `O=[N+]([O-])c1ccc2c(c1)C1=C(CO2)Cc2ccccc2O1`, the GI50 is 23.6 µM (inactive) with CCRF-CEM; 26.5 µM (inactive) with TK-10; 15.8 µM (inactive) in the assay with SK-MEL-5; 23.9 µM (inactive) in the assay on HOP-92; 19.2 µM (inactive) in the assay on IGROV-1; 25.6 µM (inactive) with MDA-MB-435. Also, the GI50 was 37.8 µM (inactive) in the assay on SF-295; 36.6 µM (inactive) in the assay with RPMI-8226; 63.8 µM (inactive) in the assay on A498; 19.8 µM (inactive) in the assay on OVCAR-3; 19.1 µM (inactive) in the assay on PC-3; 16.3 µM (inactive) in the assay with HCT-116. For the same molecule, the GI50 in the assay with MDA-MB-231 was 27.4 µM (inactive); in the assay on COLO 205, 16.8 µM (inactive); with SF-268, 21.3 µM (inactive); in the assay on HCT-15, 14.3 µM; in the assay on KM12, 20.1 µM (inactive); in the assay on ACHN it was 15.5 µM (inactive).

As for `O=C1NC(N2CCOCC2)=N/C1=C\c1ccc(O)cc1`, the GI50 in the assay with CCRF-CEM, in the assay with TK-10, in the assay with HL-60, in the assay with HOP-92, in the assay on IGROV-1 and in the assay with MDA-MB-435 was > 100 µM (inactive) in each case. Besides, the GI50 with SF-295, in the assay on RPMI-8226, with OVCAR-3, in the assay on PC-3, in the assay with HCT-116 and in the assay with MDA-MB-231 was > 100 µM (inactive) throughout. Moreover, the GI50 is > 100 µM (inactive) in the assay with COLO 205; > 100 µM (inactive) in the assay with SF-268; greater than 100 µM in the assay on HCT-15; > 100 µM (inactive) with KM12; > 100 µM (inactive) in the assay on ACHN.

Take `CNCCCNC(=S)Cn1cc(C)c(=O)[nH]c1=O`: the GI50 in the assay with CCRF-CEM was > 30.6 µM (inactive); in the assay on TK-10, > 64.7 µM (inactive); with SK-MEL-5 it was > 21.3 µM (inactive); in the assay with HOP-92, 34.4 µM (inactive); in the assay on IGROV-1, > 39.5 µM (inactive); in the assay with MDA-MB-435, > 26.1 µM (inactive). Moreover, the GI50 was > 43 µM (inactive) with NCI-H460; > 27 µM (inactive) with SF-295; > 100 µM (inactive) with RPMI-8226; > 55.6 µM (inactive) in the assay with A498; > 48.9 µM (inactive) in the assay on OVCAR-3; > 45.5 µM (inactive) in the assay with PC-3. Also, the GI50 in the assay on HCT-116 is > 33.8 µM (inactive); with MDA-MB-231, > 60.4 µM (inactive); in the assay on COLO 205, > 48.8 µM (inactive); with SF-268, > 39.1 µM (inactive); with HCT-15 it was greater than 42.7 µM; in the assay on KM12 it was > 48.1 µM (inactive). In addition, in the assay with ACHN, the GI50 was > 49.2 µM (inactive).

With `CC1(C)[C@@H]2CC[C@@]1(C)CN(CCC[N+](C)(C)C)C2`, the GI50 in the assay with CCRF-CEM, with TK-10, with SK-MEL-5, in the assay on HOP-92, in the assay on IGROV-1 and in the assay with MDA-MB-435 was > 100 µM (inactive) throughout. In addition, the GI50 with NCI-H460, with SF-295, with RPMI-8226, in the assay with A498, in the assay with OVCAR-3 and in the assay with PC-3 was > 100 µM (inactive) throughout. In addition, the GI50 is > 100 µM (inactive) in the assay with HCT-116; > 100 µM (inactive) in the assay on MDA-MB-231; > 100 µM (inactive) with COLO 205; > 100 µM (inactive) in the assay with SF-268; greater than 100 µM in the assay with HCT-15; > 100 µM (inactive) in the assay on KM12. For the same molecule, the GI50 in the assay with ACHN is > 100 µM (inactive).

In the case of `O=[N+]([O-])/C(C(Cl)=C(Cl)Cl)=C1\Nc2ccc([N+](=O)[O-])cc2N1`, the GI50 was 27.4 µM (inactive) with CCRF-CEM; > 100 µM (inactive) in the assay on TK-10; > 100 µM (inactive) in the assay with SK-MEL-5; 14.3 µM (inactive) in the assay with HOP-92; > 100 µM (inactive) with MDA-MB-435; > 100 µM (inactive) with NCI-H460. Further, the GI50 is > 100 µM (inactive) with SF-295; 55 µM (inactive) in the assay on RPMI-8226; > 100 µM (inactive) in the assay with A498; > 100 µM (inactive) in the assay with OVCAR-3; > 100 µM (inactive) in the assay on PC-3; 46.5 µM (inactive) with HCT-116. Further, the GI50 in the assay on MDA-MB-231 is 45.2 µM (inactive); with COLO 205 it was > 100 µM (inactive); with SF-268, 61.8 µM (inactive); in the assay with HCT-15, greater than 100 µM; in the assay with KM12 it was > 100 µM (inactive); with ACHN it was > 100 µM (inactive).

In the case of `c1ccc(-c2nc3ccccc3n3c(CN4CCCCC4)nnc23)cc1`, the GI50 is > 100 µM (inactive) in the assay with CCRF-CEM; 35.2 µM (inactive) in the assay on TK-10; > 100 µM (inactive) in the assay on SK-MEL-5; 31.2 µM (inactive) in the assay with HOP-92; 47.9 µM (inactive) in the assay with IGROV-1; > 100 µM (inactive) in the assay on MDA-MB-435. Further, the GI50 is > 100 µM (inactive) in the assay with NCI-H460; 49.4 µM (inactive) with SF-295; > 100 µM (inactive) in the assay on RPMI-8226; 60 µM (inactive) with A498; > 100 µM (inactive) with OVCAR-3; > 100 µM (inactive) with PC-3. Besides, the GI50 in the assay on HCT-116 is > 100 µM (inactive); in the assay on MDA-MB-231 it was 60 µM (inactive); in the assay on COLO 205 it was > 100 µM (inactive); with SF-268 it was 49.5 µM (inactive); with HCT-15, greater than 100 µM; with ACHN it was 28.7 µM (inactive).

For the molecule `N#Cc1c(-c2ccc([N+](=O)[O-])cc2)cc(-c2ccc(Nc3ccnc4cc(C(F)(F)F)ccc34)cc2)nc1N`, the GI50 was 1.88 µM (inactive) in the assay on CCRF-CEM; > 48.2 µM (inactive) in the assay with TK-10; 25.5 µM (inactive) in the assay with SK-MEL-5; 20.8 µM (inactive) in the assay with HOP-92; 8.53 µM (inactive) in the assay with IGROV-1; 9.14 µM (inactive) with MDA-MB-435. In addition, the GI50 in the assay with NCI-H460 is 11.9 µM (inactive); with SF-295, 15.9 µM (inactive); in the assay with RPMI-8226 it was 4.27 µM (inactive); in the assay on A498 it was > 48.3 µM (inactive); with OVCAR-3, 12.9 µM (inactive); in the assay with PC-3, 18.9 µM (inactive). The GI50 was 6.92 µM (inactive) with HCT-116; 18.9 µM (inactive) in the assay with MDA-MB-231; 28.3 µM (inactive) in the assay with COLO 205; 33 µM (inactive) with SF-268; 5.96 µM in the assay with HCT-15; 7.19 µM (inactive) with KM12. Besides, the GI50 in the assay on ACHN was 29.6 µM (inactive).

Turning to `C[P+](c1ccccc1)(c1ccc(Cl)cc1)c1ccc(Cl)cc1`, the GI50 in the assay with TK-10 is 14.2 µM (inactive); with SK-MEL-5, 2.84 µM (inactive); in the assay on HOP-92, 10.3 µM (inactive); in the assay on IGROV-1, 4.94 µM (inactive); in the assay on MDA-MB-435, 5.45 µM (inactive); with NCI-H460 it was 24.2 µM (inactive). Also, the GI50 with RPMI-8226 was 0.432 µM (active); with A498 it was 27.5 µM (inactive); with OVCAR-3 it was 0.183 µM (active); in the assay on PC-3 it was 20.2 µM (inactive); with HCT-116 it was 6.93 µM (inactive); in the assay with MDA-MB-231, 13.2 µM (inactive). The GI50 in the assay with COLO 205 was 10.4 µM (inactive); with SF-268, 38.6 µM (inactive); with HCT-15, 88.9 µM; in the assay with ACHN it was 29.1 µM (inactive).

As for `COc1ccc(/N=C2/C(=N/c3ccc(OC)cc3)N(c3ccccc3)C(=S)N2N=C=C2Sc3ccccc3N2C)cc1`, the GI50 in the assay with TK-10 is 32.1 µM (inactive); in the assay with SK-MEL-5 it was > 100 µM (inactive); in the assay on HOP-92, 47.3 µM (inactive); in the assay on IGROV-1, > 100 µM (inactive); in the assay with MDA-MB-435, > 100 µM (inactive); in the assay on NCI-H460 it was > 100 µM (inactive). Further, the GI50 was > 100 µM (inactive) in the assay with SF-295; > 100 µM (inactive) in the assay with RPMI-8226; > 100 µM (inactive) in the assay with OVCAR-3; > 100 µM (inactive) in the assay with PC-3; 88.1 µM (inactive) in the assay with HCT-116; 25.5 µM (inactive) with MDA-MB-231. Besides, the GI50 in the assay on COLO 205 was > 100 µM (inactive); in the assay with SF-268, > 100 µM (inactive); with HCT-15, greater than 100 µM; in the assay with KM12, > 100 µM (inactive); with ACHN, > 100 µM (inactive).

Consider `CCOS(C)(=O)=O` [METHANESULFONIC ACID ETHYL ESTER], for which the GI50 in the assay on CCRF-CEM is > 100 µM (inactive); in the assay on TK-10, > 100 µM (inactive); in the assay with SK-MEL-5 it was > 100 µM (inactive); in the assay with HL-60, > 100 µM (inactive); in the assay on HOP-92, 17 µM (inactive); in the assay on IGROV-1, > 100 µM (inactive). Also, the GI50 with MDA-MB-435, in the assay with NCI-H460, with SF-295, in the assay with A498, in the assay on OVCAR-3 and in the assay with PC-3 was > 100 µM (inactive) throughout. The GI50 in the assay with HCT-116 is > 100 µM (inactive); in the assay on MDA-MB-231, > 100 µM (inactive); in the assay with COLO 205, > 100 µM (inactive); in the assay with SF-268 it was > 100 µM (inactive); in the assay on HCT-15, greater than 100 µM; in the assay on KM12, > 100 µM (inactive). Also, the GI50 in the assay on ACHN is > 100 µM (inactive).
